Results: US9669005B2, “Use of naringenin in preparing drugs for preventing and/or treatment abdominal aortic aneurysm” (priority 2013, dated 2017)

What was measured:
Format in all cases: in vivo
[1] = Body weight and blood fat of CaPO4 treated C57BL/6J mice
Procedure: Gavage was started at the first day after surgery, and water, naringenin (50 mg/kg) (Sigma-Aldrich, St. Louis, Mo.) or doxycycline (100 mg/kg) (Sigma-Aldrich, St. Louis, Mo.) gavage were given on mice daily. Materials were removed from the mice 7 days after gavage. Mice were weighed, and blood was drawn from inner canthus by capillary, after centrifuged for 10 minutes at 6000 rotations, the supernatant was removed and blood fat was measured (kit is purchased from BIOSINO company). Then perfusion and washing were performed on mice using PBS. Blood vessels were separated, and four blood vessels were randomly chosen for each group for photographing. The results were shown in FIG. 1, wherein, NaCl was the group of daubing NaCl (n=11), CaPO4 was the group of daubing CaPO4 plus water feed (n=12), CaPO4+NGN was the group of daubing CaPO4 μlus naringenin gavage (n=11), and CaPO4+Dox was the group of daubing CaPO4 μlus doxycycline gavage (n=11).

IL-6 and MCP-1 = assay: Immunohistochemical staining of IL-6 and MCP-1 on vascular walls, CaPO4 model; settings: CaPO4 daubed mice; immunohistochemistry; FIG. 3B
Description: IL-6 and MCP-1 are proinflammatory chemotactic factors and cytokines, and they are mainly from vascular walls. MCP-1 can release more matrix metalloproteinase to degrade matrix by recruiting leukocytes, which mediats vascular remodeling and expanding (MacTaggart J N et al. Deletion of ccr2 but not ccr5 or cxcr3 inhibits aortic aneurysm formation Surgery. 2007; 142:284-288; Ishibashi M et al. Bone marrow-derived monocyte chemoattractant protein-1 receptor ccr2 is critical in angiotensin ii-induced acceleration of atherosclerosis and aneurysm formation in hypercholesterolemic mice. Arterioscl throm vasc biol. 2004; 24: e174-178), while IL-6 can enlarge effect of MCP-1 to aggravate the onset of abdominal aortic aneurysms (Tieu B C et al. An adventitial il-6/mcpl amplification loop accelerates macrophage-mediated vascular inflammation leading to aortic dissection in mice. J Clin Invest. 2009; 119:3637-3651). We used histochemical staining to identify the expressions of IL-6 and MCP-1 on vascular walls. IL-6 and MCP-1 were immunohistochemical results of anti-IL-6 and anti-MCP-1 specific antibodies (purchased from Abcam, Cambridge Company, UK), respectively.

[2] = tested on: abdominal aortic aneurysms in angiotensin II induced ApoE-/- mice; assay: Abdominal aortic aneurysm model in ApoE-/- mice induced by angiotensin II submerging pump, naringenin gavage; settings: AngII ApoE-/- mice
Procedure: Firstly, 16 weeks of male ApoE^−/− mice were randomly divided into two groups, control group (n=16) and naringenin group (n=15), respectively. And then they were anesthetized by 0.1% pentobarbital sodium, and mini pumps (model 2004, Alzet, Cupertino, Calif.) were subcutaneously submerged; angiotensin II (Sigma-Aldrich, St. Louis, Mo.) dissolved with normal saline was added to the pump, such that drugs can be continuously administrated for 4 weeks at a dosage of 1000 ng/kg/min. From the first day after surgery, gavage was daily performed to mice at constant time points, water gavage in control group, and naringenin gavage (50 mg/kg) in naringenin group. Materials were removed 28 days after gavage. Blood pressure of the mice was measured by tail cuff method with BP-89A sphygmomanometer (Beijing Softron Biotechnology Co., Ltd.), and the mice were weighted. Blood was drawn in inner canthus of the mice, and after centrifuged for 10 minutes at 6000 rotations, supernatant was removed and the blood fat levels of the mice were measured. […] Aortas of mice were fixed and separated. AngII group was the control group of angiotensin II submerging pump and water gavage. AngII+NGN group was the group of angiotensin II submerging pump and naringenin gavage. Four blood vessels were randomly selected in each group for photographing. The results were shown in FIG. 5A, the former two blood vessels in AngII group have significant bulges at suprarenal site, exceeding 50% of the diameters of the blood vessels at adjacent site, and arterial aneurysms are formed. […] Next, the statistics of the onset of abdominal aortic aneurysms in all the mice was performed. In the control group of angiotensin II submerging pump and water gavage, only one of 16 mice died from the fracture of aortic dissection within the first 7 days after submerging pump, another one died from the fracture of abdominal aortic aneurysms 1 week after submerging pump, abdominal aortic aneurysms were generated in 6 of the remaining 14 mice at 28th day after submerging pump. Therefore, in control group of angiotensin II submerging pump, aortic aneurysms were formed in 8 of 16 mice, that is, the morbidity of aortic aneurysms was 50%. And in the group of angiotensin II submerging pump and naringenin gavage, 1 of 15 mice died from the fracture of aortic aneurysms, only 1 of the remaining mice suffered from abdominal aortic aneurysms at 28 day after submerging pump. Therefore, in the group of angiotensin II submerging pump and naringenin gavage, only two of 15 mice suffered from aortic aneurysms, that is, the morbidity of aortic aneurysms was 13.3%. […] After removing materials from mice, aortas were perfused with 4% paraformaldehyde and fixed, the suprarenal aorta from diaphragm muscle to renal artery branch on the right side was equally divided into two segments, which were put into liquid nitrogen to freeze for 30 s after embedded with OCT. Serial sections were performed, the thickness of each section was 6 μm, with the spacing of 300 μm, and continuous 16 sections were performed on each mouse. H.E. staining was used to determine the diameters of abdominal aortas of mice, the diameters were measured and the maximum diameter was selected therefrom. The maximum diameter was compared with the diameter of adjacent site, and if the maximum diameter exceeds 50% of diameter of the adjacent site, it can be considered that the mouse suffered from an abdominal aortic aneurysm. […] We used Gomori staining to determine the fracture situation of the elastic lamina of abdominal aortas of mice, and statistics was performed. The results were shown in FIG. 6B, the fracture of the elastic lamina of abdominal aortas of mice decreases after naringenin gavage, and the mice detected in each group are all 6 mice. The data in Figure are an average value ±standard deviation.

[3] = CaPO4 treated C57BL/6J mice, gavage 7 days, naringenin 50 mg/kg, doxycycline 100 mg/kg

SMILES: O=C1C[C@@H](c2ccc(O)cc2)Oc2cc(O)cc(O)c21 [naringenin]
- body weights and blood fat levels ([1]; C57BL/6J mice, naringenin gavage 50 mg/kg, 7 days): does not affect
- Body weight [1, 3]: 20.1 ± 1.41 g
- Cholesterol [1, 3]: 3.53 ± 0.45 mmol
- Triglyceride [1, 3]: 0.97 ± 0.22 mmol
- expression of IL-6 and MCP-1 in adventitia in vascular walls (IL-6 and MCP-1): reduce their expressions
- morbidity of aortic aneurysms ([2]; naringenin 50 mg/kg gavage 28 days, 15 mice, control 50%): 13.3%
- formation of abdominal aortic aneurysms (vascular photos) ([2]; naringenin 50 mg/kg gavage 28 days, FIG. 5A): reduce the formation of abdominal aortic aneurysms
- maximum diameter of suprarenal abdominal aortas (H.E. staining) ([2]; naringenin gavage, 11 mice per group, FIG. 6A): significantly decreases
- fracture of the elastic lamina of abdominal aortas (Gomori staining) ([2]; naringenin gavage, FIG. 6B): decreases
- Dissection (number of mice) ([2]; naringenin gavage, of 15 mice): 0
- Fracture (number of mice) ([2]; naringenin gavage, of 15 mice): 1
- Without aneurysm (number of mice) ([2]; naringenin gavage, of 15 mice): 13
- aneurysm (number of mice) ([2]; naringenin gavage, of 15 mice, 28th day): 1
